Laboratory results taken from US10633407B2, “14-membered ketolides and methods of their preparation and use” (President and Fellows of Harvard College, priority 2014, dated 2020).
≈ marks a conversion by molar mass, not a printed value.

How the values were obtained:
Experiment in all cases: CLSI broth dilution MIC determination
Assay type in all cases: cell-based
E. coli ATCC 25922 = settings: Escherichia coli, ATCC25922, E. coli ATCC 25922 (MP-4); read-out: MIC
Text: (§1) MIC data was collected for the novel macrolides that this platform has produced against over 21 unique strains of B. subtilis, E. coli, S. aureus, S. pneumoniae, and H. influenzae, including several multidrug-resistant strains, with a special focus on macrolide resistant mechanisms (vide supra). Azithromycin (Azithro) and Solithromycin (Solithro) were included as a control macrolides in many cases. CLSI standard procedures for broth dilution MIC determination were used. […] These genotypes can be constitutive or inducible.

[1] = test system: E. coli MP-532 clinical-cErmB; settings: Escherichia coli
Text: as §1

E. coli MP-541 clinical = settings: Escherichia coli, MP541CLINICAL, read-out: MIC
Text: as §1

[2] = test system: E. coli MP-9 ATCC25922:tolC; settings: Escherichia coli, ATCC25922
Text: as §1

[3] = test system: S. aureus (MRSA) MP-513 ST-228 cErm (Clinical-cErm); settings: Staphylococcus aureus, read-out: MIC
Text: as §1

S. aureus ATCC 29213 = settings: Staphylococcus aureus, ATCC29213; S. aureus ATCC 29213 (MP-12); read-out: MIC
Text: as §1

[4] = test system: S. aureus MP-17 ATCCBAA-977 (BAA 977 iErm); settings: Staphylococcus aureus; S. aureus MP-17, ATCCBAA-977, iErm; read-out: MIC
Text: as §1

S. aureus MRSA: USA300 = settings: Staphylococcus aureus; S. aureus MRSA: USA300 (MP-549, msr(a)); read-out: MIC
Text: as §1

A. baumannii ATCC 19606 = settings: Acinetobacter baumannii, ATCC19606; A. baumannii ATCC 19606 (MP-15); read-out: MIC
K. pneumoniae ATCC 10031 = settings: Klebsiella pneumoniae, ATCC10031, K. pneumoniae ATCC 10031 (MP-14); read-out: MIC
P. aeruginosa ATCC 27853 = settings: Pseudomonas aeruginosa, ATCC27853; P. aeruginosa ATCC 27853 (MP-3); read-out: MIC
P. aeruginosa MP-7 PAO1 = settings: Pseudomonas aeruginosa, read-out: MIC
[5] = test system: P. aeruginosa MP-8 PAO1:mex (mex-oprM-deletion); settings: Pseudomonas aeruginosa, PAO1
[6] = test system: K. pneumoniae MP-548 clinical; settings: Klebsiella pneumoniae, MP548CLINICAL, read-out: MIC
[7] = test system: K. pneumoniae MP-546 Clinical-MDR; settings: Klebsiella pneumoniae, read-out: MIC
[8] = test system: A. baumannii MP-577 Clinical-AZT low; settings: Acinetobacter baumannii, read-out: MIC
[9] = test system: A. baumannii MP-576 Clinical-MDR; settings: Acinetobacter baumannii, read-out: MIC

SMILES	MIC (E. coli ATCC 25922) [µg/mL]	MIC [1] [µg/mL]	MIC (E. coli MP-541 clinical) [µg/mL]	MIC [2] [µg/mL]	MIC [3] [µg/mL]	MIC (S. aureus ATCC 29213) [µg/mL]	MIC [4] [µg/mL]	MIC (S. aureus MRSA: USA300) [µg/mL]	MIC (A. baumannii ATCC 19606) [µg/mL]	MIC (K. pneumoniae ATCC 10031) [µg/mL]	MIC (P. aeruginosa ATCC 27853) [µg/mL]	MIC (P. aeruginosa MP-7 PAO1) [µg/mL]	MIC [5] [µg/mL]	MIC [6] [µg/mL]	MIC [7] [µg/mL]	MIC [8] [µg/mL]	MIC [9] [µg/mL]
CC[C@H]1OC(=O)[C@@](C)(F)C(=O)[C@H](C)[C@@H](O[C@@H]2OC(C)CC(N(C)C)C2O)[C@](C)(OC)C[C@@H](C)C(=O)[C@H](C)[C@H]2N(CC#CCn3cc(-c4ncccn4)nn3)C(=O)O[C@]12C (stereo partly shown) [FSM-22741]	16 (≈ 19.3 µM)	> 64	32 (≈ 38.6 µM)	4 (≈ 4.83 µM)	> 64	0.125 (≈ 0.151 µM)	0.125 (≈ 0.151 µM)	0.25 (≈ 0.302 µM)	8 (≈ 9.66 µM)	4 (≈ 4.83 µM)	> 64	> 64	8 (≈ 9.66 µM)	64 (≈ 77.3 µM)	> 64	32 (≈ 38.6 µM)	> 64
CC[C@H]1OC(=O)[C@@](C)(F)C(=O)[C@H](C)[C@@H](O[C@@H]2OC(C)CC(N(C)C)C2O)[C@](C)(OC)C[C@@H](C)C(=O)[C@H](C)[C@H]2N(CC#CCn3cc(-c4cc(N)nc(N)n4)nn3)C(=O)O[C@]12C (stereo partly shown) [FSM-22742]	16 (≈ 18.6 µM)	> 64	16 (≈ 18.6 µM)	2 (≈ 2.33 µM)	> 64	0.5 (≈ 0.583 µM)	1 (≈ 1.17 µM)	1 (≈ 1.17 µM)	16 (≈ 18.6 µM)	4 (≈ 4.66 µM)	64 (≈ 74.6 µM)	64 (≈ 74.6 µM)	8 (≈ 9.32 µM)	64 (≈ 74.6 µM)	> 64	32 (≈ 37.3 µM)	> 64
CC[C@H]1OC(=O)[C@@](C)(F)C(=O)[C@H](C)[C@@H](O[C@@H]2OC(C)CC(N(C)C)C2O)[C@](C)(OC)C[C@@H](C)C(=O)[C@H](C)[C@H]2N(CC#CCn3cc(-c4cc(N)ncn4)nn3)C(=O)O[C@]12C (stereo partly shown) [FSM-22745]	32 (≈ 38 µM)	> 64	32 (≈ 38 µM)	4 (≈ 4.75 µM)	> 64	0.5 (≈ 0.593 µM)	1 (≈ 1.19 µM)	1 (≈ 1.19 µM)	32 (≈ 38 µM)	8 (≈ 9.49 µM)	> 64	> 64	16 (≈ 19 µM)	> 64	> 64	64 (≈ 75.9 µM)	> 64
CC[C@H]1OC(=O)[C@@](C)(F)C(=O)[C@H](C)[C@@H](O[C@@H]2OC(C)CC(N(C)C)C2O)[C@](C)(OC)C[C@@H](C)C(=O)[C@H](C)[C@H]2N(CC#CCn3cc(-c4cnccn4)nn3)C(=O)O[C@]12C (stereo partly shown) [FSM-22746]	32 (≈ 38.6 µM)	> 64	64 (≈ 77.3 µM)	4 (≈ 4.83 µM)	> 64	0.25 (≈ 0.302 µM)	0.25 (≈ 0.302 µM)	0.5 (≈ 0.604 µM)	16 (≈ 19.3 µM)	8 (≈ 9.66 µM)	> 64	> 64	16 (≈ 19.3 µM)	> 64	> 64	64 (≈ 77.3 µM)	> 64
CC[C@H]1OC(=O)[C@@](C)(F)C(=O)[C@H](C)[C@@H](O[C@@H]2OC(C)CC(N(C)C)C2O)[C@](C)(OC)C[C@@H](C)C(=O)[C@H](C)[C@H]2N(CC#CCn3cc(-c4cncc(N)n4)nn3)C(=O)O[C@]12C (stereo partly shown) [FSM-22747]	32 (≈ 38 µM)	> 64	32 (≈ 38 µM)	4 (≈ 4.75 µM)	> 64	0.25 (≈ 0.297 µM)	0.25 (≈ 0.297 µM)	0.5 (≈ 0.593 µM)	16 (≈ 19 µM)	8 (≈ 9.49 µM)	> 64	> 64	16 (≈ 19 µM)	> 64	> 64	32 (≈ 38 µM)	> 64
